For one data set, the system named is A549 cells. Kind of data set: Mitochondrial morphology analysis (MFC, machine learning) in A549 cells. To be noted: for Concentration (dose) at which mitochondrial fission was inhibited: in vitro screening.
The test system of the next data set is U87 (Glioblastoma cells). The experiment in a line: Cell proliferation of U87 cells. In kind it is cell-based. To be noted: 0.15~2.5 μM of Drpitor1a, Ctrl = 1. The procedure:
(§1) Cell proliferation assay: Cell proliferation was measured 48 hours post compound treatment using Click-iT® EdU Alexa Fluor® 488 Imaging Kit (available from Thermo Fisher Scientific) according to manufacturer's protocol. 1.0×10^5 cells were seeded per well in 6-well plates and compounds were added 24 hours after seeding. EdU was allowed to incorporate 10 hours before flow cytometry. Percentage of cells incorporated with EdU in each group was determined using SONY SH800S flow cytometer and compared between control group and treatment groups.

Data set [1] has as its system mutant mouse Drp1 K38A in siDrp1-treated A549 cells. Kind of data set: MFC in A549 cells transfected with siDrp1+mDrp1 K38A. To be noted: FIG. 5A.
The test system of data set [2] is SK-MES-1. Kind of data set: Mitochondrial fragmentation count in SK-MES-1 cells. In kind it is cell-based. To be noted: 0.1-0.5 μM of Drpitor1a.
For data set [3], the system named is SK-MES-1. Kind of data set: Colony formation assay in SK-MES-1 cells. In kind it is cell-based. To be noted: 0.5 μM of Drpitor1a. The method, then: (§2) Colony formation assay: Cells were seeded in 6-well plates and optimal concentrations of compounds were added 24 hours after seeding. After 48 hours of compound treatment, cells were disassociated with 0.25% trypsin-EDTA (25200114, Gibco, Burlington, ON, Canada) and reseeded in a 48-well plate at a density of 200 live cells/mL. After 7-10 days of culture, cells were fixed with 4% paraformaldehyde and then stained with 1% crystal violet (V5265, Millipore Sigma, Etobicoke, ON, Canada). Images of cell colonies were taken by a Panasonic LX3 digital camera (Kadoma, Osaka, Japan).

The subject of data set [4] is A549. Kind of data set: Cell proliferation assay (EdU) in A549 cells. Format: cell-based, human. To be noted: for Cell proliferation: A549, 0.5 μM of Drpitor1a, 48 hours; for Percentage of EdU incorporated cells: mdivi-1 50 μM, Drpitor1 0.75 μM, Drpitor1a 0.5 μM, FIG. 6A. The procedure: as §1
Data set [5] has as its system MCF7. Kind of data set: Mitochondrial fragmentation count in MCF7 cells. Format: cell-based. To be noted: 0.1-0.5 μM of Drpitor1a.
The test system of data set [6] is SW 900. The experiment in a line: Mitochondrial fragmentation count in SW 900 cells. In kind it is cell-based. To be noted: 0.1-0.5 μM of Drpitor1a.
The subject of data set [7] is SK-LU-1. The experiment in a line: Mitochondrial fragmentation count in SK-LU-1 cells. In kind it is cell-based. To be noted: 0.1-0.5 μM of Drpitor1a.
The subject of data set [8] is MCF7. The experiment in a line: Colony formation assay in MCF7 cells. Format: cell-based. To be noted: 0.5 μM of Drpitor1a. The procedure:
as §2

For data set [9], the system named is A549. The experiment in a line: Apoptosis assay (Annexin V/PI) in A549 cells. Format: cell-based, human. To be noted: 1.0 μM of Drpitor1, 0.25-0.5 μM of Drpitor1a, 48 hours. The method, then: Apoptosis assay: Cell apoptosis was determined by the Annexin V+ propidium iodide (PI) method using Alexa Fluor 488 Annexin V/Dead Cell Apoptosis Kit (available from ThermoFisher Scientific). A549 cells were collected 48 hours after compound treatment. Percentage of Annexin V (+) and PI (+) cells was determined using SONY S[…] flow cytometer and compared between control group and treatment groups.

The test system of data set [10] is SK-MES-1. Kind of data set: Cell proliferation assay (EdU) in SK-MES-1 cells. To be noted: 0.5 μM of Drpitor1a. In kind it is cell-based. The procedure: as §1
Data set [11] deals with A549. The experiment in a line: Colony formation assay in A549 cells. To be noted: 0.5 μM of Drpitor1a. Format: cell-based, human. The method, then:
as §2

Data set [12] concerns U373 (Glioblastoma cells). The experiment in a line: Cell proliferation of U373 cells. To be noted: 0.15~2.5 μM of Drpitor1a, Ctrl = 87.2. In kind it is cell-based. The procedure: as §1
Data set [13] concerns Drp1 knocked-down A549 cells. The experiment in a line: MFC in Drp1 knocked-down A549 cells with FCCP-induced fission. In kind it is cell-based, human. To be noted: FIG. 5B.
Procedure: Higher MFC indicates more fragmented mitochondrial network.
Carbonyl cyanide-4-(trifluoromethoxy) phenylhydrazone (FCCP) was added, a mitochondrial oxidative phosphorylation uncoupler, to cells treated with siDrp1.
Data set [14] has as its system SW 900. The experiment in a line: Apoptosis assay (Annexin V/PI) in SW 900 cells. In kind it is cell-based. To be noted: 0.25-0.5 μM of Drpitor1a.
Procedure: (§4) Apoptosis assay: Cell apoptosis was determined by the Annexin V+ propidium iodide (PI) method using Alexa Fluor 488 Annexin V/Dead Cell Apoptosis Kit (available from ThermoFisher Scientific). A549 cells were collected 48 hours after compound treatment. Percentage of Annexin V (+) and PI (+) cells was determined using SONY S[MUT] flow cytometer and compared between control group and treatment groups.
Data set [15] deals with MCF7. The experiment in a line: Cell proliferation assay (EdU) in MCF7 cells. To be noted: 0.5 μM of Drpitor1a. In kind it is cell-based. The procedure: as §1
The test system of data set [16] is Daoy cells (Medulloblastoma cells). The experiment in a line: Cell proliferation of Daoy cells. To be noted: 0.15~2.5 μM of Drpitor1a, Ctrl = 1. Format: cell-based. The procedure: as §1
In data set [17] the test system is right ventricle ischemia-reperfusion injury. To be noted: 0.5 μM in perfusate; ex vivo rat heart.
Procedure: Briefly, Sprague-Dawley rats were anesthetized with an intraperitoneal injection of ketamine (75 mg/kg)/xylazine (10 mg/kg). The hearts were harvested and perfused with oxygenated Krebs' solution at 37° C. at a constant pressure of 85 cmH2O on a Langendorff apparatus. RV pressure was measured by a fluid-filled balloon placed in the RV connected to a pressure transducer (Harvard Apparatus; Holliston, Mass., USA). High fidelity signals were recorded using PowerLab 8/35 data acquisition hardware and analyzed using LabChart Pro 8 software (AD Instruments; Colorado Springs, Colo., USA).
IR protocol: Hearts were stabilized for 10 minutes before the IR experiment. Two consecutive cycles of 20 minutes of global ischemia followed by 20 minutes of reperfusion were performed. […] Same volume of DMSO was used as a negative control for test compound. […]
Mitochondrial superoxide imaging and quantification: RV tissues collected from Langendorff RV-IR experiments were cut into pieces of 1×1×1 mm^3 and were incubated with 5 μM of MitoSOX™ Red mitochondrial superoxide indicator (available from Molecular Probes™) at 37° C. for 15 minutes. […] Intensity of the MitoSOX™ Red mitochondrial superoxide indicator was analyzed by the Leica LAS X software.
Test compound was added to the perfusate prior to IR. […] After IR, RV myocardium was collected and mitochondrial superoxide was measured.
Data set [18] deals with SW 900. The experiment in a line: Cell proliferation assay (EdU) in SW 900 cells. Format: cell-based. To be noted: 0.5 μM of Drpitor1a. The method, then:
as §1

The nature of data set [19]: Liver and kidney toxicity (blood samples), body weight in xenotransplant mice. The source says: (§3) In vivo xenotransplant tumor model: BALB/c Rag2^−/−; IL2Rgc^−/− double knock out mice were kindly provided by Dr. M Ito, Central Institute for Experimental Animals, Kawasaki, Japan and were bred in the Animal Facility at Queen's University. Animal protocols were approved by the University Animal Care Committee of Queen's University. A xenotransplant mouse model of human lung cancer was established by subcutaneous injection of A549 cells ([…] per tumor) at the back flank regions. […] Equal volumes of solvents were injected as control. […] Tumor length and width was measured every 2 days. Animals were euthanized with cervical dislocation under 5% isoflurane inhalation followed by tumor collection. Blood samples were collected for liver and kidney toxicity studies just before euthanasia.

For data set [20], the system named is SK-MES-1. The experiment in a line: Apoptosis assay (Annexin V/PI) in SK-MES-1 cells. In kind it is cell-based. To be noted: 0.25-0.5 μM of Drpitor1a.
Procedure: as §4
Data set [21] deals with A549 cells xenotransplant tumor. Kind of data set: In vivo xenotransplant tumor model of human lung cancer. Also on record: species or system mouse. To be noted: 10 mg/kg intraperitoneally and intratumorally; end of study.
Excerpt: as §3

The next data set relates to mitochondrial complex I. The experiment in a line: Mitochondrial complex I activity in A549 cells. To be noted: mdivi-1 50 μM, Drpitor1a 0.5 μM; FIG. 5C. In kind it is cell-based, human.
Data set [22] relates to SK-LU-1. The experiment in a line: Colony formation assay in SK-LU-1 cells. To be noted: 0.5 μM of Drpitor1a. In kind it is cell-based. The procedure: as §2
The subject of a further data set is PAH PASMC cell lines. Kind of data set: Cell proliferation of PAH PASMC cell lines. In kind it is cell-based, human. More on the design: unit: % EdU-positive cells. To be noted: 1.0 μM of Drpitor1a. The method, then: as §1
For data set [23], the system named is SK-LU-1. The experiment in a line: Apoptosis assay (Annexin V/PI) in SK-LU-1 cells. To be noted: 0.25-0.5 μM of Drpitor1a. Format: cell-based.
Procedure: as §4
The subject of data set [24] is SK-LU-1. Kind of data set: Cell proliferation assay (EdU) in SK-LU-1 cells. Format: cell-based. To be noted: 0.5 μM of Drpitor1a. The procedure: as §1
Setting [25] is: 10 mg/kg of Drpitor1a, blood before euthanasia.

`N#Cc1cc2c3ccccc3[nH]c2c2ccccc12` [Compound 13]: the “Concentration (dose) at which mitochondrial fission was inhibited” value in the data set on A549 cells (A549 cells) was 20 µM. Further, the “Inhibition of mitochondrial fission (reduction in MFC) in in vitro screening” value with A549 cells (A549 cells, 17 compounds screened, FIG. 1) was “most significant inhibition of mitochondrial fission”.

`O=C1c2ccncc2C(=O)c2c1[nH]c1ccccc21` [Drpitor1a]: the Cell proliferation with U87 (Glioblastoma cells) amounted to 0.1084 ± 0.001408; in the data set on A549 [4], 46 ± 0.8505; in the data set on SK-MES-1 [10] it was 5.523 ± 0.3613; in [12], 45.33 ± 0.2728; in the data set with MCF7 [15], 3.437 ± 0.2325; in [16], 0.7078 ± 0.005519. In addition, the Cell proliferation was 28.37 ± 0.3712 with SW 900 [18]; 3.367 ± 0.3335 in the data set on PAH PASMC cell lines (PAH PASMC cell line P1); 0.7167 ± 0.05608 with PAH PASMC cell lines (PAH PASMC cell line P3); 9.68 ± 0.563 in the data set with PAH PASMC cell lines (PAH PASMC cell line P7); 5.04 ± 0.5525 in the data set on SK-LU-1 [24]. In data set [1], the “MFC in cells transfected with siDrp1+mDrp1 K38A” value was “this reduction was not seen”. Besides, the MFC in the data set on SK-MES-1 [2] worked out at 0.2291 ± 0.02596; in the data set with MCF7 [5] it was 0.5479 ± 0.05737; with SW 900 [6] it was 0.3345 ± 0.0309; in the data set with SK-LU-1 [7] it was 0.3367 ± 0.03623. Besides, the Colony number in the data set with SK-MES-1 [3] was 0 ± 0; in the data set with MCF7 [8] it was 0 ± 0; in the data set on A549 [11], 1.5 ± 0.2236; in the data set on SK-LU-1 [22], 0.6667 ± 0.3333. For the same compound, the “Dose dependence of effect on cell proliferation” value in the data set with A549 [4] is reported as “dose-dependent”. Further, in the data set on A549 [4], the “Percentage of EdU incorporated cells” value is listed as “significantly reduced”. Moreover, the Apoptosis in the data set with A549 [9] came out at 25.06 ± 0.4675; in the data set on SW 900 [14], 5.686 ± 0.1402; in the data set on SK-MES-1 [20] it was 2.464 ± 0.131; with SK-LU-1 [23], 3.6 ± 0.2292. For the same compound, in data set [13] (A549, Drpitor1a 0.25 μM), the “MFC on adding compound to siDrp1+FCCP treatment” value is given as “reduction of MFC was not seen”. Moreover, the “Mean mitochondrial volume of cardiomyocytes during RV-IR” value in [17] was “increased mean mitochondrial volume”. Also, the “MitoSOX intensity (mitochondrial superoxide) in RV during IR” value in data set [17] is “lower MitoSOX intensity”. The Albumin in data set [19] (setting [25]) worked out at 26.75 ± 0.9465 g/L. For the same compound, the BUN in [19] (setting [25]) was found to be 6.225 ± 1.186 mmol/L. In data set [19] (setting [25]), this compound showed a Cholesterol of 4.188 ± 0.3317 mmol/L. In data set [19] (setting [25]), this compound registered a Total bilirubin of 2.5 ± 0.324 µmol/L. Also, the Body weight entry in data set [19] (10 mg/kg, 22 days of therapy) was “did not reduce body weight”. Further, in the data set on A549 cells (A549 cells), the “Concentration giving the same degree of inhibition of mitochondrial fission (potency)” value worked out at 0.5 µM. Further, in the data set with A549 cells (FIG. 3B), the “Percentage area of elongated (filamentous) mitochondria, machine learning” value is given as “increased percentage area of elongated mitochondria”. The “Reduction in tumor volume” value in [21] stood at 43.8%. Besides, in data set [21], the “Reduction in tumor weight” value stood at 43.9%. Moreover, in the data set with mitochondrial complex I, the “Mitochondrial complex I activity in A549 cells” value is given as “no significant change”.

As to `N#CC(C#N)=NNc1ccc(OC(F)(F)F)cc1` [FCCP, carbonyl cyanide-4-(trifluoromethoxy)phenylhydrazone, reference compound], in [13], the “Mitochondrial fission in Drp1 knocked-down A549 cells” value is “caused mitochondrial fission”.

Turning to `COc1cc(-n2c(=S)[nH]c3ccccc3c2=O)c(Cl)cc1Cl` [mdivi-1, mitochondrial division inhibitor 1, reference compound], the Cell proliferation with U87 (Glioblastoma cells) amounted to 0.9552 ± 0.01912; in the data set with A549 [4], 32.43 ± 1.481; with SK-MES-1 [10] it was 24.97 ± 3.38; in data set [12], 65.43 ± 0.06667; in the data set with MCF7 [15], 8.217 ± 1.256; in data set [16] it was 0.8464 ± 0.008105. In addition, the Cell proliferation is on record as 50.1 ± 0.7211 in the data set on SW 900 [18]; 7.38 ± 0.1762 with PAH PASMC cell lines (PAH PASMC cell line P1); 0.3567 ± 0.04372 in the data set with PAH PASMC cell lines (PAH PASMC cell line P3); 7.78 ± 0.1882 in the data set on PAH PASMC cell lines (PAH PASMC cell line P7); 29.5 ± 1.652 in the data set with SK-LU-1 [24]. In data set [1], the “MFC in cells transfected with siDrp1+mDrp1 K38A” value was “this reduction was not seen”. The Colony number was 5.5 ± 0.5627 in the data set with SK-MES-1 [3], 7.167 ± 0.7491 in the data set on MCF7 [8], 0.5 ± 0.3416 in the data set with A549 [11] and 2.5 ± 0.4282 with SK-LU-1 [22]. Moreover, in the data set with A549 [4], the “Percentage of EdU incorporated cells” value was “significantly reduced”. The compound also displayed an Apoptosis with A549 [9] of 15.3 ± 0.5213. For the same compound, the “Concentration giving the same degree of inhibition of mitochondrial fission (potency)” value in the data set with A549 cells (A549 cells) amounted to 25 µM. Besides, the “Concentration (dose) at which mitochondrial fission was inhibited” value with A549 cells (A549 cells) is 20 µM. Also, the “Mitochondrial complex I activity in A549 cells” value in the data set on mitochondrial complex I is recorded as “no significant change”.

The values are drawn from US11229629B2, “Inhibitors of mitochondrial fission” (Queen's University at Kingston, priority 2019, dated 2022).
